In US8029980B2, “Identification and use of agents that modulate oncogenic transcription agent activity” (The Board of Trustees of the University of Illinois, priority 2006, dated 2011):

Columns and labels:
FoxM1 [1] = biological target: T1, FoxM1 (Homo sapiens, UniProt Q08050); experiment: FoxM1-responsive firefly luciferase reporter assay in C3-Luc cells; assay type: cell-based; conditions: C3-Luc cells
T1 construct: expressed in transfected cells; host or cells: U2OS clone C3 / C3-Luc
T1 sequence (Q08050 1-748 isoform Q08050-2): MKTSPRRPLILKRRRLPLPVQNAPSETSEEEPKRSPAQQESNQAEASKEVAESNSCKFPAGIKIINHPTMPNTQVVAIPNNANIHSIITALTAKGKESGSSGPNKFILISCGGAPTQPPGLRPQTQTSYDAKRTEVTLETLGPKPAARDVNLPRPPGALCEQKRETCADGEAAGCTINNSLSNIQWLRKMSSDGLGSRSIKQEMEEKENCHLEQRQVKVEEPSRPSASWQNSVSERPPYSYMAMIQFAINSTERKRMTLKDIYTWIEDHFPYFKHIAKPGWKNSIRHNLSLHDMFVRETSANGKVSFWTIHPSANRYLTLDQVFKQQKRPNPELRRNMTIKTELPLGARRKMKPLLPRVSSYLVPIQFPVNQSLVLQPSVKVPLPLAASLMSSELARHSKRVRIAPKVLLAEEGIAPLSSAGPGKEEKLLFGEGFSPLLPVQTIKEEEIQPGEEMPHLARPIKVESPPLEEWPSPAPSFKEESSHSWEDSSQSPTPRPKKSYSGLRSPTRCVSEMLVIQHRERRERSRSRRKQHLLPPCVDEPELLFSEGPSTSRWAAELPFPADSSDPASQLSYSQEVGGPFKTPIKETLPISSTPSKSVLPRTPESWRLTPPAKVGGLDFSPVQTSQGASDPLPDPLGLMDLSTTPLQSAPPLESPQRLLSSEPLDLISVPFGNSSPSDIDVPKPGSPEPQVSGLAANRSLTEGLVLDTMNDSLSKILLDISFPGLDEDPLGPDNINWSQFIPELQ
Protocol: (§1) FIG. 6. Thiostrepton and Siomycin A both inhibit FoxM1 transcriptional activity. […] The next day, the luciferase activity was measured with the Dual-Luciferase reporter assay system (E1910; Promega) according to the manufacturer's instructions.
(§2) The development of U2OS clone C3 cell line with doxycyclin inducible FoxM1-GFP fusion protein has been described before (17). This cell line was transfected with a plasmid expressing firefly luciferase under the control of 6× FoxM1 responsive (FoxRE) promoter (17), along with pcDNA3.1 (Invitrogen, Carlsbad, Calif.) plasmid that expresses neomycin phospho-transferase. […] This clone was further transfected with pRL-CMV (Promega) that expresses renilla luciferase along with pLPCX-puro (Clontech), and the cells were selected in 2 μg/ml puromycin. This cell line which expresses FoxM1-dependent firefly luciferase and constitutive renilla luciferase was named as C3-Luc and used for the screening of compound libraries (Challenge set and Diversity set) from the National Cancer Institute.
(§3) For high-throughput screening, the C3-Luc cells were grown in 96-well plates and treated overnight with a combination of 1 μg/ml doxycycline and 10 μM of compounds from the library. Next day, the firefly and renilla luciferase activities were measured with the Dual Glo system (E2940; Promega).
(§4) For the other luciferase assay experiments, the cells were treated as indicated in the FIG. 1 legend and the luciferase activity was measured using the Dual Luciferase reporter assay system (E1910; Promega) according to the manufacturer's instructions.

FoxM1 [2] = experiment: as above; assay type: cell-based, human; conditions: C3-Luc cells without doxycycline induction, increasing concentration
Protocol: as §1, §2, §3, §4

`C=C(NC(=O)C(=C)NC(=O)c1csc(C2=N[C@@H]3c4csc(n4)[C@H]4NC(=O)c5csc(n5)[C@H]([C@](C)(O)[C@@H](C)O)NC(=O)[C@H]5CSC(=N5)/C(=C/C)NC(=O)[C@H]([C@@H](C)O)NC(=O)c5csc(n5)[C@]3(CC2)NC(=O)[C@H](C)NC(=O)C(=C)NC(=O)C(=C)NC(=O)[C@H](C(C)C)N[C@@H]2C=Cc3c([C@H](C)O)cc(nc3[C@H]2O)C(=O)O[C@@H]4C)n1)C(N)=O` [Siomycin A] was tested, and the “relative firefly luciferase activity (FoxM1 transcriptional activity)” value (FoxM1 [1]; 1 μg/mL doxycycline (60-fold induction), 5 μM compound, 24 hrs) was “efficiently reduced the value to basal levels”, the “relative firefly luciferase activity (exogenous FoxM1 transcriptional activity)” value (FoxM1 [1]; 1 μg/ml doxycycline induction (~16-fold), 10 μM compound, overnight) was “efficiently reduced the value to basal levels” and the “firefly luciferase activity conferred by the FoxM1-responsive promoter (endogenous FoxM1)” value (FoxM1 [2]) was “dose-dependent decrease”.
